In series [1] the target is T1, cannabinoidergic CB1 receptors (Rattus norvegicus, UniProt P20272).
T1 construct: the brain in toto (cerebellum excluded) and the spleen were rapidly dissected and maintained in ice; from tissue; host or cells: rat brain (cerebellum excluded), membrane preparation
The series is described as follows: Radioreceptorial binding, [3H]-CP-55,940 competition, rat brain membranes. The following applies: rat brain membranes, 1 nM [3H]-CP55,940; read-out: CB1 (brain) Ki. As for the experimental part:
(§1) The affinity of the synthesized compounds towards the cannabinoidergic CB1 and CB2 receptors was evaluated in vitro through radioreceptorial binding studies by utilizing the following method.
(§2) The receptorial binding technique allows indeed to establish if and with what affinity and specificity a determined compound binds itself to a particular receptor. To evaluate the possible affinity of a determined compound towards a particular receptor it is necessary to make to compete (in a particular preparation of the tissue in which those determined receptors are present) the compound to be tested with another compound whose affinity is known and whose molecule was rendered radioactive. […] The reading of the radioactivity present in the receptor-compound complex allows furthermore to calculate with extreme precision the amount of compound bound to the receptor. […] By repeating the same experimental scheme it is possible to evaluate the affinity of the compound towards other kinds of receptors and establish then the specificity degree.
(§3) Food and water were available ad libitum.
(§4) The animals were sacrificed by cervical dislocation, the brain in toto (cerebellum excluded) and the spleen were rapidly dissected and maintained in ice.
(§5) The tissue was homogenized in 15 volumes (weight/volume) of TME buffer (50 mM Tris, 1 mM EDTA e 3 mM MgCl2, pH 7.4) by an Ultra-Turrax and centrifuged for 10 minutes at 1086×g in a centrifuge cooled at 4° C. The resulting supernatant was centrifuged at 45,000×g for 30 min at 4° C. by using a Beckman SW41 rotor and the final pellet was resuspended in 50 volumes of TME.
(§6) The obtained membranes (50-80 μg of proteins) were incubated in the presence of 1 nM di[^3H]-CP55,940 for 1 h at 30° C. in a final volume of 0.5 ml of TME buffer containing 5 mg/ml of bovine serum albumin (BSA). The non specific binding was measured in the presence of CP55,940 at the 1 μM concentration.
(§7) All the experiments were carried out in polypropylene test tubes pretreated with Sigma-Cote (Sigma Chemical Co. Ltd., Poole, UK) to reduce the non specific binding.
(§8) For the building of the competitive inhibition binding curves eight different concentrations of each compound were used.
(§9) Incubation was interrupted by addition of TME buffer (at 4° C.) containing 5 mg/ml of BSA and filtration under vacuum through Whatman GFC filters pretreated with 0.5% of polyethylamine (PEI) and by using a filtering apparatus (Brandell, Gaithersburg, Md., USA). Filters were washed 3 times with 5 ml of Tris HCl buffer (pH 7.4, 4° C.) containing 1 mg/ml of BSA and singly placed in plastic vials containing 4 ml of scintillating liquid (Ultima Gold MV, Packard).
(§10) The radioactivity present in the filters was measured by a scintillator spectrophotometer (Tricarb 2100, Packard, Meridien, USA).
(§11) The protein determination was carried out by the Bradford method by using the protocol and the reactants supplied by Bio-Rad (Milano, Italia).
(§12) The affinity of the compounds towards the CB1 and CB2 receptors was expressed in Ki terms.

In series [2] the target is T2, cannabinoidergic CB2 receptors (Rattus norvegicus, UniProt Q9QZN9).
T2 construct: the brain in toto (cerebellum excluded) and the spleen were rapidly dissected and maintained in ice; from tissue; host or cells: rat spleen, membrane preparation
T2 sequence (Q9QZN9 1-360): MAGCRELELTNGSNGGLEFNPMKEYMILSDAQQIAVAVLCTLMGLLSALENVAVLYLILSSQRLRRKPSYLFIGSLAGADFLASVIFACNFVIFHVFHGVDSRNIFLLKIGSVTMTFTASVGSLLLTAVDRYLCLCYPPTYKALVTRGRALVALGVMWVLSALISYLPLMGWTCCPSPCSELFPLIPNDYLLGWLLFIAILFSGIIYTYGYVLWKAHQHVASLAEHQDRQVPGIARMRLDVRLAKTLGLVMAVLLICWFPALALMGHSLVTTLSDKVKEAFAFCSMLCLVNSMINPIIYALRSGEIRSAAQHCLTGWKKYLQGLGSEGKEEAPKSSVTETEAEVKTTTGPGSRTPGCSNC
As to the kind of experiment: Radioreceptorial binding, [3H]-CP-55,940 competition, rat spleen membranes. The following applies: rat spleen membranes, 1 nM [3H]-CP55,940; read-out: CB2 (spleen) Ki. As for the experimental part:
as §1, §2, §3, §4, §5, §6, §7, §8, §9, §10, §11, §12

Series [3] concerns rat. The following applies: for passage of the hemato-encephalic barrier: concluded from the hypothermia tests. The method, then:
The rectal temperature in the rat was determined by an electronic thermometer inserted at a 2 mm depth. The measurements were carried out on rats acclimated for one hour. […]
Each test was repeated on ten animals; the reported results are the average of the results obtained with the ten animals.

For a further series, the system named is rat intestinal motility. The series is described as follows: Intestinal motility, Upper Gut Transit Test, compound alone. The conditions noted are these: WIN 55,212-2 0.5 mg/kg alone, control 50%. In kind it is in vivo. The method, then: To evaluate the activity in vivo of the compounds (I) object of the present invention, functional tests were carried out directed to the evaluation of the effect of said compounds on the rat intestinal motility. It was indeed shown the involvement of the cannabinoidergic CB1 receptors in the intestinal motility regulation in rat (R. G. Pertwee et al; Br. J. Pharmacol.; 1996, 118, 2199-2205). In particular, the CB1 receptor agonists slacken the gastrointestinal motility; antagonist compounds of the same receptors have instead a prokinetic effect on the gastrointestinal transit (G. Colombo et al.; Eur. J. Pharmacol.; 1998, 344, 67-69; M. A. Casu et al.; Eur. J. Pharmacol.; 2003, 459, 97-105).
The evaluation of the constipating or prokinetic effect of the compounds was carried out by the Upper Gut Transit Test method on the basis of the procedure defined and ratified by Y. Nagakura et al.; Eur. J. Pharmacol.; 1996, 311, 67-72. The method, which allows to measure the motility of the stomach and of the first intestine tract (small or little intestine), requires: • the administration of the compound to be tested by i.p. route; • the administration of carmine red (marker not directly absorbable from the stomach) by intragastric route through a metal probe, after 20 minutes from the administration of the compound to be tested; • the rat sacrifice by cervical dislocation after a pre-fixed time (30 minutes) starting from the administration time; • the intestine explant from pylorus to the ileo-cecal valve; • the determination of the intestinal part crossed by the marker; • the data processing to determine the percentage of crossed part with respect to the total length of the small intestine.
With respect to the control (physiological solution or carrier wherein the compounds to be tested were solubilized or dispersed), the administration of CB1 agonist compounds implies an intestinal transit percentage reduction; an opposite effect is noticed in case of antagonist compounds. The latter are therefore capable to cancel the constipating effect of CB1 agonist compounds.
Each test was repeated on ten animals; the results reported in the Examples are the average of the results obtained with ten animals.

The subject of series [4] is rat. The series is described as follows: Hypothermia test in vivo, antagonism of the hypothermia induced by WIN 55,212-2. The following applies: for Body temperature: WIN 55,212-2 (3 mg/kg) + compound (0.1-30 mg/kg).
Description: The rectal temperature in the rat was determined by an electronic thermometer inserted at a 2 mm depth. The measurements were carried out on rats acclimated for one hour. The rectal temperature was determined before and after (from 30 to 120 minutes) the i.p. administration of the compound to be tested.

Where two headings read alike, the source gives them in different places.

T1 sequence (P20272 whole entry): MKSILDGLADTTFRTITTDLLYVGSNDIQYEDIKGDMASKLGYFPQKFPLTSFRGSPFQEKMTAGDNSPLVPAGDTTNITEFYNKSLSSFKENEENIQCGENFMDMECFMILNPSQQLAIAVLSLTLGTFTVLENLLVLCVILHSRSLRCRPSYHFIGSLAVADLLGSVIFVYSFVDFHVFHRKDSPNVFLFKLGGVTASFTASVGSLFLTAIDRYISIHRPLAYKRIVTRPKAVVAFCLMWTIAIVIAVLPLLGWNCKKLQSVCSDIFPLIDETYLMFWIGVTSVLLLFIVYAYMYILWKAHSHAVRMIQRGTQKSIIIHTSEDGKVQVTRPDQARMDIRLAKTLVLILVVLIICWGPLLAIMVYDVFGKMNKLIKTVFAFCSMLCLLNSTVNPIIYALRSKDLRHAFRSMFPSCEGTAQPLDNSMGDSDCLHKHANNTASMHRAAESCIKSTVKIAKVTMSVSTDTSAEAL

Take `O=C(NN1CCCCC1)c1nn(-c2ccc(Cl)cc2Cl)c2c1CCc1sc(Cl)cc1-2` [Example 3.1, N-piperidinyl-7-chloro-1-(2′,4′-dichlorophenyl)-4,5-dihydro-1H-thieno[2,3-g]indazol-3-carboxamide]: the values for the Ki in series [1] and in series [2] were 44.3 ± 0.5 nM and 67.4 ± 6 nM, respectively.
`Cc1cc2c(s1)CCc1c(C(=O)NN3CCCCCC3)nn(-c3ccc(Cl)cc3Cl)c1-2` [Example 3.11, N-homopiperidinyl-7-methyl-1-(2′,4′-dichlorophenyl)-4,5-dihydro-1H-thieno[2,3-g]indazol-3-carboxamide]: the melting point is 229 °C. The Ki in series [1] was found to be 57 ± 6 nM. Also, in series [2], the inhibitory constant (Ki) was determined as 57.1 ± 5 nM.
For the compound `Cc1c(C(=O)c2cccc3ccccc23)c2cccc3c2n1[C@H](CN1CCOCC1)CO3` [WIN 55,212-2, reference compound], the Body temperature in the series with rat [3] (WIN 55,212-2 3 mg/kg alone, 0 min from administration) amounted to 37.9 °C; in the series on rat [3] (WIN 55,212-2 3 mg/kg alone, 15 min), 35.6 °C; with rat [3] (WIN 55,212-2 3 mg/kg alone, 30 min), 33.8 °C; in the series on rat [3] (WIN 55,212-2 3 mg/kg alone, 60 min), 34.5 °C; in the series with rat [3] (WIN 55,212-2 3 mg/kg alone, 90 min), 35.8 °C; in the series with rat [3] (WIN 55,212-2 3 mg/kg alone, 120 min) it was 36.8 °C. For the same compound, the “intestinal portion run by the marker with respect to the total intestine length” value in the series with rat intestinal motility was found to be 25%.
`O=C(NN1CCCCCC1)c1nn(-c2ccc(Cl)cc2Cl)c2c1CCc1sc(Br)cc1-2` [Example 3.8, N-homopiperidinyl-7-bromo-1-(2′,4′-dichlorophenyl)-4,5-dihydro-1H-thieno[2,3-g]indazol-3-carboxamide]: the melting point turned out to be 176 °C. In addition, the Ki in series [1] came out at 9.6 ± 1.7 nM. In addition, the Ki in series [2] came to 60 ± 1 nM.
Take `O=C(NN1CCCCC1)c1nn(-c2ccc(Cl)cc2Cl)c2c1CCc1sc(Br)cc1-2` [Example 3.2, N-piperidinyl-7-bromo-1-(2′,4′-dichlorophenyl)-4,5-dihydro-1H-thieno[2,3-g]indazol-3-carboxamide]: the Ki in series [1] was 4.47 ± 0.14 nM; in series [2], 36.8 ± 5 nM. For the same compound, the Body temperature was 38.0 °C in the series on rat [3] (compound alone 0.1-30 mg/kg i.p., 0 min); 37.9 °C in the series on rat [3] (compound alone 0.1-30 mg/kg i.p., 15 min); 38.0 °C with rat [3] (compound alone 0.1-30 mg/kg i.p., 30 min); 38.2 °C in the series with rat [3] (compound alone 0.1-30 mg/kg i.p., 60 min); 38.1 °C with rat [3] (compound alone 0.1-30 mg/kg i.p., 90 min); 37.9 °C in the series with rat [3] (compound alone 0.1-30 mg/kg i.p., 120 min). For the same compound, the Body temperature in the series with rat [4] (0 min) came out at 38.0 °C; in the series on rat [4] (15 min), 38.0 °C; with rat [4] (30 min) it was 34.0 °C; with rat [4] (60 min) it was 34.5 °C; in the series with rat [4] (90 min) it was 35.8 °C; in the series on rat [4] (120 min), 36.8 °C. Further, the “passage of the hemato-encephalic barrier” value in the series with rat [3] is “not able to pass the hemato-encephalic barrier”. The “effect on body temperature (hypothermia) of the compound alone, in words” value in the series with rat [3] (i.p., compound alone, up to 120 min) was “In none of the examined cases there was a reduction of the body temperature”. In addition, the “antagonist activity towards the hypothermia induced by WIN 55,212-2, in words” value with rat [4] (compound i.p. 30 min before WIN 55,212-2 (3 mg/kg)) was “no variation of the body temperature with respect to the treatment with the only WIN 55,212-2”.
`O=C(NN1CCCC1)c1nn(-c2ccc(Cl)cc2Cl)c2c1CCc1sc(Br)cc1-2` [Example 3.7, N-pyrrolidinyl-7-bromo-1-(2′,4′-dichlorophenyl)-4,5-dihydro-1H-thieno[2,3-g]indazol-3-carboxamide]: the melting point amounted to 227 °C. Further, the Ki in series [1] stood at 126 ± 5 nM. In addition, in series [2], the Ki came out at 195 ± 27 nM.
`Cc1cc2c(s1)CCc1c(C(=O)NN3CCCCC3)nn(-c3ccc(Cl)cc3Cl)c1-2` [Example 3.9, N-piperidinyl-7-methyl-1-(2′,4′-dichlorophenyl)-4,5-dihydro-1H-thieno[2,3-g]indazol-3-carboxamide] showed a melting point of 216 °C. In series [1], the Ki turned out to be 7.88 ± 0.5 nM. The Ki in series [2] turned out to be 55.1 ± 6 nM. In addition, the “passage of the hemato-encephalic barrier” value in the series with rat [3] was “unable to pass the hemato-encephalic barrier”.

Source of the values: patent US8106218B2, “Pharmaceutical compounds” (Neuroscienze Pharmaness S.C. A R.L., priority 2004, dated 2012).
